Source: patent publication USRE39682E1, “Farnesyl derivatives and pharmaceutical compositions containing them” (Ramot at Tel Aviv University Ltd., priority 1993, dated 2007)

Columns and labels:
PPMTase [1] = biological target: T1, PPMTase (Homo sapiens, UniProt O60725); test: PPMTase activity (AFC methylation) in membranes of HEC1A cells; assay type: biochemical; settings: for PPMTase activity: with inhibitor
T1 construct: PPMTase activity in membranes obtained from four different cell lines as determined by methylation of AFC; endogenous in cells; host or cells: HEC1A cell membranes
T1 sequence (O60725 whole entry): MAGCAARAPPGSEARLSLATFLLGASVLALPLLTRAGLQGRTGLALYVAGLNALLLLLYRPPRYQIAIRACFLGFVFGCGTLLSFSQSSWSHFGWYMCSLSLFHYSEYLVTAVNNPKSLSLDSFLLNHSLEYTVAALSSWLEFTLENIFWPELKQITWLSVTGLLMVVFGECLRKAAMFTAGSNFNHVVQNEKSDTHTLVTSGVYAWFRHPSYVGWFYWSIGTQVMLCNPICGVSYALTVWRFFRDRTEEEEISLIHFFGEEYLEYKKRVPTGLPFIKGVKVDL
Description: (§1) Charles River adult male rats were used for preparation of cerebellar synaptosomal membranes. Cerebella were removed after decapitation and homogenized in 0.32M sucrose containing 50 mM Tris-HCl pH 7.4, 3 mM EDTA, 1 mM EGTA, 5 unit/ml aprotinin and 5 μg/ml pepstatin (buffer A) to yield 10% (w/v) homogenates. Nuclear fractions were obtained by 10 min. 600×g centrifugation and synaptosomal fractions were obtained by 20 mins. 14,500×g centrifugation. Membranes of the various cell types used were prepared in the above buffer A by a 60 min. spin at 100,000×g.
(§2) Pellets were resuspended in the homogenization buffer and stored at −70° C. Methylation assays were performed at 37° C. in 50 mM Tris-HCl buffer pH 7.4, using 75-125 μg protein, 25 μM [methyl-^3H]AdoMet ([…]) as a methyl donor and 150 μM AFC as a methylation substrate (prepared as a stock solution in DMSO) in a total volume of 50 μl. DMSO concentration in all assays was 4%.
(§3) Reactions were terminated after 10 min. by adding 500 μl chloroform methanol (1:1) and a subsequent addition of 250 μl H2O, mixing them and subsequently by phase separation. A portion of 125 μl of the chloroform phase was dried down at 40° C. and 200 μl of 1M NaOH/1% SDS solution were added thereto. The [^3H]methanol thus formed was counted by the vapor phase equilibrium method as described previously (Hakiai et al., Cell Mol. Neurobiol., 11, 415-431, (1991); Lenner et al., Cell Mol. Neurbiol., 12, 333 and 3351, (1992); Ben-Baruch et al., Biochem. Biophy. Res. Commun., 195, 282-288, (1993)). Typical background counts (i.e. counts of methylation with no AFC added) were 50-100 cpm while typical methylation counts with AFC as a substrate yielded 500 to 6000 cpm. Assays were performed in triplicate and background counts subtracted. Methylation of endogenous substrates, in intact cells, and [α-^32P] GTP-blot overlay assays and gel electrophoreses were performed as detailed previously (Hakiai et al., supra (1991); Lenner et al., supra (1993)).
(§4) The B16F10 melanoma cells were grown in RPMI 1640/10% fetal calf serum, 2 mM glutamine and antibiotics as for the HEC1A cells, at the density of 1×10^4 cells/well. All four types of cells were used for determining the PPMTase activity using AFC as the substrate as described above for synaptosomal membrane preparation. Usually 150 μg membranal proteins were used in the assay for a 10 min. incubation time.

PPMTase [2] = biological target: T2, PPMTase (Rattus norvegicus, UniProt Q9WVM4); test: PPMTase activity (AFC methylation) in membranes of non-transformed Rat-1 cells; assay type: biochemical; settings: non-transformed Rat-1 membranes; for PPMTase activity: with inhibitor
T2 construct: PPMTase activity in membranes obtained from four different cell lines as determined by methylation of AFC; endogenous in cells; host or cells: ras-transformed rat1 (EJ) cell membranes
T2 sequence (Q9WVM4 whole entry): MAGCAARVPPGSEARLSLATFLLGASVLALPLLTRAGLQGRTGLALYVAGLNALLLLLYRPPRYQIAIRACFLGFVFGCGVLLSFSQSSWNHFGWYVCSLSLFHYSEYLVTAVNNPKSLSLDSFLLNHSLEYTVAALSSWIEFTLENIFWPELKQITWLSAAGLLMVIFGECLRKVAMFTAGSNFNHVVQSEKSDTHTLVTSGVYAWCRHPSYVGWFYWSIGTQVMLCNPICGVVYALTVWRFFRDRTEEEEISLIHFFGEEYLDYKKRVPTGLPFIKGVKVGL
Description: as §1, §2, §3, §4

[3] = test system: human endometrial carcinoma HEC1A cells; test: Growth of HEC1A cells (cell counting); assay type: cell-based; settings: 3 days of treatment
Source text: The cell lines employed were rat1, -EJ, which are rat1 cells stably expressing Val- 12 activated human Ha-ras gene (Land H. et al., Nature, 304, 596-602, (1983)); V-raf-3T3, which are 3T3 cells stably expressing the V-raf gene (Xu, N., et al., Proc. Natl. Acad. Sci., 90, 6741-6745); RB-22, which are 3T3 cells stably expressing the rat Erb-B2 gene (Peles, et al., EMBO J., 10, 2077-2086 (1991)) CO6O cells (SV40-CHO), which are CHE cells stably expressing the SV-40 T-antigen gene (Lavi, Proc. Natl. Acad. Sci., 78, 6144-6148 (1981)); human endometrial carcinoma cell line HEC1A, which are cells that express activated K-ras (Enomoto T., Cancer Res., 50, 6139-6145; mouse B16F10 melanoma cells, rat pheochromocytoma PC12 cells, […] cells CHE and COS cells.
HEC1A, V-raf-3T3 and SV40-CHE cells were grown in Dulbecco's modified Eagle medium (DMEM) containing 10% fetal calf serum (FCS), 4 mM L-glutamine, 10 μg/ml streptomycin and 10 U/ml penicillin. Rat1 and -EJ cells were grown in the same medium except that it was supplemented with 12.5 U/ml nyostatin. RB-22 cells were grown in modified DMEM (1 mM sodium pyruvate, 20 mM sodium bicarbonate)/10% FCS containing 4 mM L-glutamine, […] streptomycin, 10 U/ml penicillin. PC-12 cells were grown in DMEM 15% FCS/5% horse serum and the above noted antibiotics.
HEC1A cells were plated in 24 well plates at a density of 5×10^3 cells per well and fed with 1 ml of medium. The cells were grown at 37° C. in a humidified atmosphere of 95%/5% air/CO2. All other cell types employed were plated in 24 well plates at a density of 2×10^3 cells per well and fed with the appropriate medium.
Cultures were treated with farnesyl derivatives or with solvent either 3 hrs following plating or one day after plating as indicated. The drugs were prepared in DMSO to yield the final desired drug (0.1-50 μM) concentration and 0.1% DMSO. Control cultures received 0.1% DMSO only. Cultures were fed on days 6, 7 and 9 of the experiment with the drugs or with solvent-containing media.
Cells were counted following 3, 7 and 10 days of beginning of treatments with drugs. For counting, cells were detached from plates with trypsin/EDTA, and collected by a low speed spin in the presence of DMEM/10% FCS. The pelleted cells were resuspended in a small volume of DMEM/10% FCS and counted under the microscope. Viability of cells was estimated by staining with (3-(4,5-dimethylthiosol-2-yl)-2,5-diphenyltetrazolium bromide (MTT) and microscopic examination of the stained and unstained cells, or spectrophotometric estimation (OD490, 590) of the total stain in each well. Non viable cells were estimated by the trypan blue exclusion method. […]

[4] = Homo sapiens, HEC-1-A, 72 h, at 10 μM FTS or 50 μM FTA, read-out: maximal effects, inhibition of growth

SMILES	% Inhibition (PPMTase [1]) [%]	PPMTase activity (PPMTase [1]) [pmol/min/mg protein]	% Inhibition (PPMTase [2]) [%]	PPMTase activity (PPMTase [2]) [pmol/min/mg protein]	concentration of maximal effects on growth [3] [µM]	Emax [3, 4] [%]	Emax at 10 µM [3, 4] [%]
CC(C)=CCC/C(C)=C/CC/C(C)=C/CSCC(=O)O [FTA, S-trans, trans-farnesylthioacetic acid, reference compound]	43	1.7	66	0.9	50	~50	
CC(C)=CCC/C(C)=C/CC/C(C)=C/CSc1ccccc1C(=O)O [FTS, (3,7,11-trimethyl-dodeca-2,6,10-trienyl)-2-thiobenzoic acid]	40	1.5	45	1.5	10		~50
